Measurements from US20110015413A1, “PROCESS FOR PREPARING CRYSTALLINE CALCIUM MUPIROCIN DIHYDRATE” (priority 2008, published 2011).

Experiments:
[1] = Morphology and particle size by thermal field scanning electron microscopy (FE SEM); type: physicochemical; details: fused primary particles formed during crystallisation, FIG. 2
Source text: The morphology of crystalline mupirocin calcium dihydrate produced according to the procedure of Example 2 was examined by thermal field scanning electron microscopy (FE SEM). An FE SEM microscope, model JSM-7000F, manufactured by Jeol Ltd., Japan, was used in the inspection of samples. The FE SEM microscope was coupled with an EDS/INCA 350 (energy dispersive X-ray analyzer) manufactured by Oxford Instruments Ltd. The samples inspected by FE SEM were not coated with a conductive layer. […] Calcium mupirocin dihydrate crystallize in a columnar particle shape having a mean particle size from about 100 to about 700 nm. During the crystallisation process primary particles, i.e., crystals, are fused to form agglomerates (FIG. 2) having a mean particle size of about 10 μm. During the drying process, the agglomerates adhere to each other, forming aggregates having a mean particle size from about 30 μm to about 400 μm.

[2] = amorphous form, quoted description; cited from earlier work
[3] = amorphous form, quoted description; cited from earlier work; remark: listed apart in the source

C/C(=C\C(=O)OCCCCCCCCC(=O)O)C[C@@H]1OC[C@H](C[C@@H]2O[C@H]2[C@@H](C)[C@H](C)O)[C@@H](O)[C@H]1O [Calcium mupirocin dihydrate, mupirocin calcium dihydrate]
mean particle size of agglomerates [1]: about 10 μm

C/C(=C\C(=O)OCCCCCCCCC(=O)[O-])C[C@@H]1OC[C@H](C[C@@H]2O[C@H]2[C@@H](C)[C@H](C)O)[C@@H](O)[C@H]1O.C/C(=C\C(=O)OCCCCCCCCC(=O)[O-])C[C@@H]1OC[C@H](C[C@@H]2O[C@H]2[C@@H](C)[C@H](C)O)[C@@H](O)[C@H]1O.O.O.[Ca+2] [amorphous calcium salt of mupirocin]
water solubility [2]: sparingly water soluble | thermal stability [3]: poor thermal stability
